Values after ≈ are worked out from the molar mass of the structure shown. Like-named read-outs stand apart in the source and are kept apart here.
Columns and labels:
[1] = test system: E. faecium; test: Susceptibility testing (MIC, modified NCCLS method); format: cell-based, Enterococcus faecium; details: Enterococcus faecium; E. faecium (6); read-out: GM* MIC (geometric mean)
Protocol: (§1) The NCCLS (National Committee for Clinical Laboratory Standards) method to determine MIC's of antimicrobial compounds was modified for high-throughput screening. All stocks of tested compounds were prepared in either water or in dimethylsulfoxide (DMSO), depending on the solubility. […] Briefly 20 2-fold serial dilutions of testing compounds from the highest concentration were made in a 384-well microtiter plate. Each well was inoculated with testing bacteria in broth to a final concentration of approximately 1-1.5×10^6 cells/ml. Bacterial growth was determined by the increase of optical density at 600 nm using a microplate reader (Tecan SpectraFluor Plus).

[2] = test system: E. faecalis; test: as above; format: cell-based, Enterococcus faecalis; details: E. faecalis (7)
Procedure, shortened: (§2)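 Growth inhibition was scored by optical density increase at 600 nm. Bacteria in broth were added at roughly 1-1.5×10^6 cells/ml to 20 twofold serial dilutions of compound, prepared from water or DMSO stocks. The NCCLS MIC procedure was modified for high throughput.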

[3] = test system: E. aerogenes; test: as above; format: cell-based, Enterobacter aerogenes; details: E. aerogenes (5)
Procedure, shortened: as §2

[4] = test system: S. aureus clinical isolates; test: MIC by agar dilution, recent clinical isolates (UCSD Medical Center); format: cell-based, Staphylococcus aureus; details: MSSA (14)
Protocol: Growth of all 14 isolates of MSSA was inhibited by Compound (9) at the lowest tested concentration (0.08 μg/ml) (See Table 6, below).

[5] = test system: S. pneumoniae; test: Susceptibility testing (MIC, modified NCCLS method); format: cell-based, Streptococcus pneumoniae; details: S. pneumoniae (3)
Protocol: as §1

[6] = format: physicochemical; details: 5 h, pH 7.2
Protocol: Assays were conducted at 37° C. in 100 mM potassium phosphate buffer pH 7.2 with 1 mM EDTA and 0.5 μg/ml TEM-1 β-lactamase. Compound (9) catalysis was determined via fixed time incubations followed by acid quenching. Product formation (triclosan) was determined by integrated peak area of A260 nm following HPLC separation. Hydrolysis product (triclosan) was separated from Compound (9) by use of an HP1100 series HPLC equipped with an Alltech Adsorbosphere HS(C18)5u 150 mm×4.6 mm column. The mobile phase was isocratic containing 55% acetonitrile and 0.1% TFA producing retention times of 20.4 minutes and 24.1 minutes for triclosan and Compound (9), respectively. Quantitation of triclosan was based on the A260 integrated peak area as compared to triclosan standards.
A typical TEM-1 β-lactamase assay is conducted at 37° C. in 1.4 ml of 100 mM potassium phosphate pH 7.2, 1 mM; ethylenediamine tetraacetic acid (EDTA) and 25 nM TEM-1 β-lactamase. A test compound is assayed at several concentrations, for example at 5 and 20 μM. At timed intervals oft=0, 15, 30, 60 and 120 minutes, 200 μl of the assay mixture is withdrawn and added to 8 μl of 10% trifluoracetic acid (TFA) in an high pressure liquid chromatography.(HPLC) microvial. Substrates and products are separated and quantitated via HPLC (described below). […]

[7] = test system: S. aureus (ATCC#700260); test: Bactericidal assay; format: cell-based; details: 0.6 μg/ml
Protocol: Compound (9) was added in log-phase S. aureus (ATCC#700260) and incubated at 37° C. The final concentration of cells at hour 0 was 1.3×10^6 cells/ml, and Compound (9) was 0.6 μg/mL. […]
Overnight broth cultures of S. aureus (ATCC#700260) were diluted 100 times into liquid medium and allowed to grow to exponential phase (OD600=0.6). Next the bacteria were diluted into fresh medium to give a working concentration of 10^6 cells/ml. Compound (9) was added to a final concentration of 0.6 μg/ml, and the suspension was incubated at 37° C. […] The samples were diluted at 10^−3×, 10^−4× or 10^−5× fold, and plated onto agar plates. The plates were incubated for 24 hours at 37° C. to obtain a viable cell count.

[8] = test system: S. epidermidis; test: Susceptibility testing (MIC, modified NCCLS method); format: cell-based, Staphylococcus epidermidis
Procedure, shortened: as §2

[9] = test system: E. cloacae; test: as above; format: cell-based, Enterobacter cloacae; details: E. cloacae (1)
Procedure, shortened: as §2

[10] = test system: E. coli/TEM-1; test: as above; format: cell-based, Escherichia coli; details: for MIC: Escherichia coli
Procedure, shortened: as §2

[11] = test system: E. coli N; test: as above; format: cell-based, Escherichia coli; details: Escherichia coli, E. coli, BLA neg.
Procedure, shortened: as §2

[12] = test system: Staphylococcus aureus; test: as above; format: cell-based; details: for MIC: Staphylococcus aureus
Procedure, shortened: as §2

[13] = test system: Gram-negative species; test: MIC comparison with reference antibiotics, Gram-negative species; format: cell-based
Protocol: as §1

[14] = test system: Vancomycin-resistant E. faecalis or E. faecium; test: Susceptibility testing (MIC, modified NCCLS method); format: cell-based, Enterococcus faecalis, Enterococcus faecium; details: VRE (5)
Protocol: as §1

[15] = test system: S. aureus clinical isolates; test: MIC by agar dilution, recent clinical isolates (UCSD Medical Center); format: cell-based, Staphylococcus aureus; details: MRSA (17)
[16] = E. aerogenes, E. cloacae and K. pneumoniae

In the case of `O=C(Cc1cccs1)N[C@@H]1C(=O)N2C(C(=O)O)=C(COc3cc(Cl)ccc3Oc3ccc(Cl)cc3Cl)CS[C@H]12` [Compound 9, 3-(2-(2,4-Dichlorophenoxy)-5-chlorophenoxy)methyl-7-(2-thienylacetamido)-3-cephem-4-carboxylic acid], the MIC [1] was over 7000 ng/mL, the MIC range [2] was 8000 to 16000 ng/mL and the MIC ([2]; Enterococcus faecalis, read-out: GM* MIC (geometric mean)) was 8000 ng/mL (≈ 12800 nM). It also gave an MIC range [3] of 500 to 8000 ng/mL, an MIC ([3]; Klebsiella aerogenes, read-out: GM* MIC (geometric mean)) of 3360 ng/mL (≈ 5370 nM) and an MIC range [4] of at most 0.08 µg/mL. For the same compound, the MIC range ([4]; listed as Comp. (9)) was 0.08-0.08 μg/ml, the MIC50 ([4]; Staphylococcus aureus) was 80 ng/mL (≈ 128 nM) and the MIC90 ([4]; Staphylococcus aureus) was 80 ng/mL (≈ 128 nM). For the same compound, the MIC range [5] was 60 to 500 ng/mL, the MIC ([5]; Streptococcus pneumoniae, read-out: GM* MIC (geometric mean)) was 122 ng/mL (≈ 195 nM) and the “stability in TEM-1 blank experiment” value [6] was “stable up to 5 hours”. For the same compound, the “decrease of the number of viable cells” value ([7]; 6 hours incubation) was 100 fold, the “decrease of the number of viable cells compared with time 0” value ([7]; 24 hour incubation) was 10,000 fold and the MIC range ([8]; S. epidermidis (5)) was 0.015 to 500 ng/mL. For the same compound, the “GM* MIC (geometric mean)” value ([8]; S. epidermidis (5), listed as Comp. (9)) was under 4 ng/mL, the “fold more active than vancomycin” value ([8]; S. epidermidis, geometric mean MIC) was 435 fold and the MIC ([8]; Staphylococcus epidermidis, S. epidermidis (5), read-out: GM* MIC (geometric mean)) was 4 ng/mL (≈ 6.39 nM). For the same compound, the MIC range [9] was 1000 ng/mL (≈ 1600 nM), the MIC ([9]; Enterobacter cloacae, read-out: GM* MIC (geometric mean)) was 1000 ng/mL (≈ 1600 nM) and the MIC [10] was 2 ng/mL (≈ 3.2 nM). For the same compound, the MIC ([10]; read-out: MIC, Comp. (9) plus 8 μg/mL SBT) was 16 ng/mL, the “fold more potent against E. coli/TEM-1 compared with E. coli N” value ([10]; MIC ratio, Table 4) was 128 fold and the MIC ([11]; read-out: MIC, Comp. (9) plus 4 μg/mL CLA, plus 4 μg/mL lithium clavulanate) was 250 ng/mL. The MIC ([11]; drug alone, read-out: MIC) was 250 ng/mL (≈ 399 nM), the MIC ([11]; plus 8 μg/mL sulbactam, read-out: MIC, Comp. (9) plus 8 μg/mL SBT) was 130 ng/mL and the “fold greater potency than vancomycin” value ([12]; MRSA and vancomycin-resistant S. aureus) was “at least 85 fold”. For the same compound, the “Geometric mean of MIC” value ([12]; S. aureus β-lactamase negative (2), listed as Comp. 9) was 1410 ng/mL, the MIC ([12]; ATCC11632, ATCC 11632, methicillin-sensitive, β-lactamase Neg./Pos., read-out: MIC) was 0.015 ng/mL (≈ 0.024 nM) and the MIC ([12]; ATCC13301, ATCC 13301, methicillin-sensitive, β-lactamase Positive, read-out: MIC) was 0.015 ng/mL (≈ 0.024 nM). For the same compound, the MIC ([12]; ATCC14154, ATCC 14154, methicillin-sensitive, β-lactamase Positive, read-out: MIC) was 0.015 ng/mL (≈ 0.024 nM), the MIC ([12]; ATCC33591, ATCC 33591, methicillin-resistant, β-lactamase Positive, read-out: MIC) was 0.03 ng/mL (≈ 0.0479 nM) and the MIC ([12]; ATCC33592, ATCC 33592, methicillin-sensitive, β-lactamase Positive, read-out: MIC) was 0.015 ng/mL (≈ 0.024 nM). The MIC ([12]; ATCC33593, ATCC 33593, methicillin-resistant, β-lactamase Positive, read-out: MIC) was 0.015 ng/mL (≈ 0.024 nM), the MIC ([12]; ATCC33594, ATCC 33594, methicillin-sensitive, β-lactamase Positive, read-out: MIC) was 0.015 ng/mL (≈ 0.024 nM) and the MIC ([12]; ATCC43300, ATCC 43300, methicillin-sensitive, β-lactamase Neg./Pos., read-out: MIC) was 0.06 ng/mL (≈ 0.0959 nM). The MIC ([12]; ATCC700260, ATCC 700260, methicillin-sensitive, β-lactamase Positive, read-out: MIC) was 0.015 ng/mL (≈ 0.024 nM), the MIC ([12]; ATCC700698, ATCC 700698, methicillin-resistant, β-lactamase Negative, read-out: MIC) was 1000 ng/mL (≈ 1600 nM) and the MIC ([12]; ATCC700699, ATCC 700699, methicillin-resistant, β-lactamase Negative, read-out: MIC) was 2000 ng/mL (≈ 3200 nM). For the same compound, the MIC ([12]; ATCC700787, ATCC 700787, methicillin-resistant, β-lactamase Positive, read-out: MIC) was 1000 ng/mL (≈ 1600 nM), the MIC ([12]; ATCC700788, ATCC 700788, methicillin-resistant, β-lactamase Positive, read-out: MIC) was 250 ng/mL (≈ 399 nM) and the MIC ([12]; ATCC700789, ATCC 700789, methicillin-resistant, β-lactamase Positive, read-out: MIC) was 31 ng/mL (≈ 49.5 nM). The MIC ([12]; MRSA, MRSA tested (7), read-out: Geometric mean of MIC) was 25 ng/mL (≈ 39.9 nM), the MIC ([12]; MSSA, MSSA tested (7), read-out: Geometric mean of MIC) was 0.018 ng/mL (≈ 0.0288 nM) and the MIC ([12]; S. aureus (14), read-out: Geometric mean of MIC) was 1 ng/mL (≈ 1.6 nM). For the same compound, the MIC ([12]; S. aureus β-lactamase negative (2), read-out: Geometric mean of MIC) was 1570 ng/mL (≈ 2510 nM), the MIC ([12]; S. aureus β-lactamase positive (12), read-out: Geometric mean of MIC) was 0.19 ng/mL (≈ 0.304 nM) and the “fold less active than imipenem” value [13, 16] was 4 fold. For the same compound, the “fold more active than cephalothin or ampicillin” value [13, 16] was “at least 33 fold”, the “fold stronger than ampicillin and cephalothin” value ([13]; M. catarrhalis and H. influenzae, geometric mean MIC) was “at least 1000 fold” and the MIC ([14]; Enterococcus, read-out: GM* MIC (geometric mean)) was 10300 ng/mL (≈ 16500 nM). The MIC range [14] was 8000 to 16000 ng/mL, the MIC range [15] was 80 to 600 ng/mL and the MIC50 ([15]; Staphylococcus aureus) was 80 ng/mL (≈ 128 nM). The MIC90 ([15]; Staphylococcus aureus) was 300 ng/mL (≈ 479 nM).

Source: patent US20020115642A1, “Beta-lactam antibiotics” (priority 2000, published 2002)
